In PMC7277544, “A Fluorescence-Based Method to Measure ADP/ATP Exchange of Recombinant Adenine Nucleotide Translocase in Liposomes” (Biomolecules, 2020):

Biological target: T1, adenine nucleotide translocase 1 (ANT1) (Mus musculus, UniProt P48962)
T1 construct: gene Slc25a4; recombinant murine ANT1 from E. coli inclusion bodies, reconstituted into liposomes
T1 sequence (P48962 2-298): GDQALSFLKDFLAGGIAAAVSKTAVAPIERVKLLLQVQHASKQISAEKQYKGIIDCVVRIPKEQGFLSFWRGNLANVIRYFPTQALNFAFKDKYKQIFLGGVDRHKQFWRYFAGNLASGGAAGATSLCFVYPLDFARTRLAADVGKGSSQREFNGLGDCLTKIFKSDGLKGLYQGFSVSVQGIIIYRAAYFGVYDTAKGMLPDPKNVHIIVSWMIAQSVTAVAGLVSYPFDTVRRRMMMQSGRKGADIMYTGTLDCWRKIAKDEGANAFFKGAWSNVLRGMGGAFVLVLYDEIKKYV
Assay: 3H-ATP uptake into ANT1 proteoliposomes (transport rate)
Assay type: biochemical

In the case of Nc1ncnc2c1ncn2[C@@H]1O[C@H](COP(=O)(O)OP(=O)(O)OP(=O)(O)O)[C@@H](O)[C@H]1O [ATP, adenosine triphosphate], the “3H-ATP uptake into ANT1 proteoliposomes (transport rate)” value is reported as 2.90 ± 0.47 mmol/min/g.
